Measurements reported in patent US20090176846A1, “N-hydroxy-4- {5- [4- (5-isopropyl-2-methyl-1, 3-thiazol-4-yl) phenoxy] pentoxy} benzamidine 2 methanesulfonic acid salt” (priority 2005, published 2009).
In brackets after ≈: the same amount, converted by molar mass. Where a name gives a salt, the structure may show the parent alone. Read-outs that look alike come from different tables or passages of the source.

Experiments:
[1] = Solubility in various solvents at room temperature; format: physicochemical
Source text: The 2 methanesulfonic acid salt, prepared in Example 1, and the 1 methanesulfonic acid salt, prepared in Comparative Example 1, of N-Hydroxy-4-{5-[4-(5-isopropyl-2-methyl-1,3-thiazol-4-yl)phenoxy]pentoxy} benzamidine, and the N-Hydroxy-4-{5-[4-(5-isopropyl-2-methyl-1,3-thiazol-4-yl)phenoxy]pentoxy} benzamidine, prepared in Reference Preparation Example 1, were examined for solubility (μg/mL) in various solvents at room temperature.

[2] = Pharmacokinetic evaluation in SD rats; format: in vivo; details: 50 mg/kg; for Cmax (maximum blood concentration): n=4
Procedure: The 2 methanesulfonic acid salt, prepared in Example 1, and the 1 methanesulfonic acid salt, prepared in Comparative Example 1, of N-Hydroxy-4-{5-[4-(5-isopropyl-2-methyl-1,3-thiazol-4-yl)phenoxy]pentoxy} benzamidine, and the N-Hydroxy-4-{5-[4-(5-isopropyl-2-methyl-1,3-thiazol-4-yl)phenoxy]pentoxy} benzamidine, prepared in Reference Preparation Example 1, were individually administered to SD rats in a dosage of 50 mg/kg. At given time points (0, 0.5, 1, 1.5, 2, 3, 5 and 8 hrs), rats were mildly anesthetized with diethyl ether, and blood samples were collected from the orbital venous plexus and stored at −20° C. until concentration analysis. The plasma samples were mixed with an equal volume of an internal standard substance solution (prepared by dissolving betamethasone in acetonitrile to give a final concentration of 30 μg/ml) with agitation for. 1 min, and was centrifuged at 12,000 rpm for 10 min. Active components of the plasma samples were analyzed by HPLC (Model: Waters Module 1). From the obtained data, pharmacokinetic parameters (maximum blood concentration (Cmax) and area under the blood concentration-time curve (AUC) were calculated by noncompartment analysis using the WinNonlin program (Version 1.0, Scientific Consulting Inc., USA). The results are given in Table 5, below.

[3] = Stability under accelerated conditions (40±2° C./75±5% RH), HPLC content; format: physicochemical; details: for Content (%): 40±2° C./75±5% RH, cap-opened vial, HPLC area percentage
Procedure: The 2 methanesulfonic acid salt of N-Hydroxy-4-{5-[4-(5-isopropyl-2-methyl-1,3-thiazol-4-yl)phenoxy]pentoxy} benzamidine, prepared in Example 1, was placed into a transparent glass vial, and stored at a cap-opened state under accelerated conditions (40±2° C./75±5% RH) for a period of two weeks. Thereafter, the sample was analyzed by HPLC (Waters Module 1). The analysis was performed using a column packed with an octadecyl-silylated silica gel (Shiseido CAPCELL PAK C18, UG 120, Particle size 5 μm) under conditions: UV detection: 256 nm, injection volume: 10 μl, mobile-phase flow rate: 1.5 mL/min. The amount of the compound was calculated as an area percentage.

bone fractures = details: rats, compared to control not treated; cited from earlier work
[4] = test system: allergic inflammatory diseases (asthma); details: asthmatic mice, cited from earlier work
[5] = distilled water, room temperature
[6] = dose-dependent, compared to control group

CS(=O)(=O)O.Cc1nc(-c2ccc(OCCCCCOc3ccc(C(=N)NO)cc3)cc2)c(C(C)C)s1 [1 methanesulfonic acid salt, N-Hydroxy-4-{5-[4-(5-isopropyl-2-methyl-1,3-thiazol-4-yl)phenoxy]pentoxy} benzamidine 1 methanesulfonic acid salt]
solubility [1, 5]: 414.34 µg/mL
solubility ([1]; pH 1.2, room temperature): 1,092.98 μg/mL
solubility ([1]; pH 4.0, room temperature): 0.99 µg/mL
Cmax (maximum blood concentration) [2]: 1400 ± 110 ng/mL
AUC (area under the blood concentration-time curve) ([2]; n=4, 0-8 hrs): 7010 ± 600 ng·h/mL

Cc1nc(-c2ccc(OCCCCCOc3ccc(C(=N)NO)cc3)cc2)c(C(C)C)s1 [2 methanesulfonic acid salt, N-Hydroxy-4-{5-[4-(5-isopropyl-2-methyl-1,3-thiazol-4-yl)phenoxy]pentoxy} benzamidine 2 methansulfonic acid salt]
change in content in accelerated test ([3]; accelerated test at 40° C., two weeks): no change
Content (%) ([3]; after 1 week): 99.87%
Content (%) ([3]; after 2 weeks): 99.86%
Content (%) ([3]; after 2 days): 99.86%
Content (%) ([3]; early stage): 99.85%
solubility [1, 5]: 3,535.33 μg/mL
solubility ([1]; pH 1.2, room temperature): 1,686.71 μg/mL
solubility fold higher than the 1 methanesulfonic acid salt ([1]; pH 4.0): about 3 fold
solubility ([1]; solvent of pH 4.0 (composition not named), pH 4, aqueous buffer, pH 4.0, room temperature, read-out: solubility): 3 µg/mL
Cmax (maximum blood concentration) [2]: 1670 ± 320 ng/mL
AUC (area under the blood concentration-time curve) ([2]; n=4, 0-8 hrs): 10300 ± 800 ng·h/mL
bioavailability ([2]; SD, rat, plasma, read-out: bioavailability relative to the 1 methanesulfonic acid salt): > 46%

Cc1nc(-c2ccc(OCCCCCOc3ccc(C(=N)NO)cc3)cc2)c(C(C)C)s1 [Free base, N-Hydroxy-4-{5-[4-(5-isopropyl-2-methyl-1,3-thiazol-4-yl)phenoxy]pentoxy} benzamidine]
bone mineral content of callus (bone fractures): significantly enhanced
bone tissue density (bone fractures): significantly increased
callus volume (bone fractures): significantly reduced
content of connective and soft tissues in the callus tissue (bone fractures): significantly reduced
mechanical strength of callus (bone fractures): significantly enhanced
solubility [1, 5]: 3.48 µg/mL (≈ 7.67 µM)
solubility ([1]; solvent of pH 1.2 (composition not named), pH 1.2, simulated gastric fluid, pH 1.2, room temperature, read-out: solubility): 951 µg/mL (≈ 2100 µM)
AUC ([2]; SD, rat, plasma, n=4, 0-8 hrs, read-out: AUC (area under the blood concentration-time curve)): 5310 ± 490 ng·h/mL
Cmax ([2]; SD, rat, plasma, n=4, read-out: Cmax (maximum blood concentration)): 1090 ± 170 ng/mL
alveolar area ([4]; compared to control group): significantly increased
number of eosinophils [4, 6]: significantly decreased
number of eosinophils in bronchoalveolar lavage fluid [4, 6]: significantly decreased
total number of leukocytes [4, 6]: significantly decreased
increase in lung weight ([4]; oral administration for 18 days, compared to control given sterile distilled water): suppressed
